Columns and labels:
[1] = test system: cyclosporin treated Wistar rats; assay: Cyclosporine induced hyperglycemia in male Wistar rats; assay type: in vivo
[2] = test system: cyclosporin treated Wistar rats; assay: Islet histopathology and apoptosis in cyclosporine treated Wistar rats; assay type: in vivo; conditions: cyclosporine 10 mg/kg PO, alone (Group-2) or with compound 1 30 mg/kg IP (Group-3)
[3] = test system: tacrolimus treated Wistar rats; assay: Tacrolimus induced hyperglycemia in male Wistar rats; assay type: in vivo; conditions: for plasma glucose levels by day-14: tacrolimus 2 mg/kg PO daily, alone or with compound 1 at 30, 10 and 3 mg/kg IP
male ZDF rats = assay: 4-week study in male ZDF rats (compound 1)
[4] = test system: rats treated with tacrolimus; assay: Renal pathology in rats co-administered with tacrolimus; assay type: in vivo; conditions: tacrolimus 0.5 mg/kg with vehicle or with Compound 2 at 11, 28 and 114 mg/kg, 25 days
Method: Tissue is removed from the kidney of rats treated with tacrolimus (Prograf®) at 0.5 mg/kg and inert vehicle, and from rats treated with tacrolimus (Prograf®) at 0.5 mg/kg and quercetin-3′-O-methylphosphonate (Compound 2) at 11 mg/kg, 28 mg/kg, and at 114 mg/kg for 25 days. […] The tissue from rats treated with Compound 2 and tacrolimus show no vacuoles.

[5] = test system: BB19 cells, human BCECs (brain capillary endothelial cells); assay: Tacrolimus uptake assay; assay type: cell-based; conditions: Endothelial cell, 1 h, 0.1 μM test compound, 1 hour incubation, 3H-tacrolimus 34 nM, read-out: cell associated ^3H-tacrolimus uptake, % of control
Method: (§1) BB19 cells, human BCECs (brain capillary endothelial cells) immortalized with the E6E7 genes of human papilloma virus, were kindly provided from Jacques G. Prudhomme, Department of Biology, University of California, Riverside, U.S.A. The cells were cultured as monolayer culture in Amniomax™-C100 basal medium (catalog number 17001-157) with Amniomax™-C100 supplement (catalog number 12556-049) (Invitrogen, Basel, CH).
(§2) Cells were seeded onto culture surfaces precoated with 10 μg/cm^2 rat tail collagen type I (BD Bioscience, Allschwil, CH) at a density of approximately 50′000 cells/cm^2 and were cultured in an incubator at 37° C. with 5% CO2, 95% fresh air and saturated humidity. For uptake assays, cells were seeded on precoated 96-well plates. Assays were performed at confluency, after 6 days in culture.
(§3) BB19 cells were seeded 50′000 cells/cm^2 on 96-well plates (Falcon) and incubated under condition described above for 6 days. Before starting the assay, cells were washed 2 times with pre-warmed Dulbecco's MEM with Glutamax-I (catalog number 61965) (Invitrogen AG, Basel, CH), supplemented with 1% non essential amino acids, 1% sodium pyruvate, 50 μg/ml gentamycin (Invitrogen AG) (DMEM). Cells were then incubated for 15 min at 37° C. and 120 rpm in DMEM with or without the specified concentrations of test compounds under investigation. After this pre-incubation, cells were incubated in DMEM containing [propyl-3H]-dihydro-FK506 (3H-tacrolimus, 1 μCi/ml, 34 nM) and with or without the specified concentrations of test compounds for 1 hour at 37° C. and 120 rpm. During this 1-hour incubation period, influx and efflux of the substrate, ^3H-tacrolimus, occur. After the 1-hour incubation period, assay was terminated by placing the assay plate on ice and washing the cells twice with ice-cold DMEM. Determination of cell associated ^3H-tacrolimus was performed by addition of Insta Gel and scintillation liquid to trypsinized cells followed by analysis on a scintillation counter (Packard TriCarb2000, Can berra Packard S.A.). The results are expressed as: % of control=100×[^3H-tacrolimus conc. with test compound]/[^3H-tacrolimus conc. with vehicle]

[6] = test system: BB19 cells, human BCECs (brain capillary endothelial cells); assay: Cyclosporin uptake assay; assay type: cell-based; conditions: 0.1 μM test compound; 1 hour incubation
Method: as §1, §2, §3
The cyclosporin uptake assay was performed similarly as described above for tacrolimus uptake assay except that ^3H-cyclosporin was used in place of ^3H-tacrolimus.

[7] = compound 1 30 mg/kg, rosiglitazone 6 mg/kg, compared to vehicle

**Q.** O=c1c(OCP(=O)(O)O)c(-c2ccc(O)c(O)c2)oc2cc(O)cc(O)c12 [Compound 1, Quercetin-3-O-methylphosphonic acid] was tested. Which “plasma glucose level during OGTT” value ([1]; compound 1 30 mg/kg IP with cyclosporine 10 mg/kg PO, day-15) did it give?
**A.** Its value is “a level similar to that of vehicle treated animals”.

**Q.** And the “plasma glucose levels by day-14” value ([1]; cyclosporine 10 mg/kg PO daily, alone or with compound 1 at 30, 10 and 3 mg/kg IP)?
**A.** The value was “reduced cyclosporine induced hyperglycemia”.

**Q.** And the “plasma glucose levels by day-14” value ([1]; cyclosporine 10 mg/kg PO with compound 1 at 30 mg/kg IP)?
**A.** Its value is “completely prevented cyclosporine induced hyperglycemia”.

**Q.** And the “number of apoptotic islet cells” value [2]?
**A.** Its value is “reduced the number of apoptotic cells to that of vehicle treated animals”.

**Q.** And the “islet cell hyperplasia and degeneration/necrosis scores” value ([2]; score 0-4)?
**A.** The value was “normalized the scores to that of vehicle treated animals”.

**Q.** And the “plasma insulin level during OGTT” value ([3]; 0, 15 and 30 minutes post glucose, compound 1 at all three dose levels with tacrolimus 2 mg/kg)?
**A.** The value was “higher than tacrolimus treated (group-2) or vehicle treated (Group-1) animals”.

**Q.** And the “plasma glucose level during OGTT” value ([3]; compound 1 30 mg/kg and 10 mg/kg IP with tacrolimus 2 mg/kg PO, day-15)?
**A.** The value was “a level similar to that of vehicle treated animals”.

**Q.** What about the “plasma glucose levels by day-14” value [3] of the same molecule?
**A.** Its value is “reduced tacrolimus induced hyperglycemia”.

**Q.** What about the plasma glucose levels (male ZDF rats; 4 weeks daily i.p., compound 1 30 and 10 mg/kg) of the same molecule?
**A.** Its plasma glucose levels is “maintains a lower plasma glucose level than vehicle treatment”.

**Q.** And the “glycated hemoglobin levels (% HbA1c) at termination” value (male ZDF rats; [7])?
**A.** The value was “significantly lower glycated hemoglobin levels”.

**Q.** What about the pancreatic insulin levels (male ZDF rats; [7]) of the same molecule?
**A.** The pancreatic insulin levels was “significantly higher than that of the vehicle treated animals”.

**Q.** And the “plasma insulin levels, fed and fasting” value (male ZDF rats; day-28 and day-29)?
**A.** Its value is “significantly higher plasma insulin levels under both fed and fasting conditions”.

**Q.** What about the liver triglyceride (male ZDF rats; four weeks of daily treatment) of the same molecule?
**A.** The liver triglyceride was “did not increase liver triglyceride”.

**Q.** And the “plasma glucose during OGTT” value (male ZDF rats; oral glucose 2 g/kg, day-29 after 12-hr fast, 15, 30, 60, 90 minutes)?
**A.** The value was “maintain lower plasma glucose level during OGTT”.

**Q.** How did the “vacuolation of kidney tissue” value [4] turn out when C=CC[C@@H]1/C=C(\C)C[C@H](C)C[C@H](OC)[C@H]2O[C@@](O)(C(=O)C(=O)N3CCCC[C@H]3C(=O)O[C@H](/C(C)=C/[C@@H]3CC[C@@H](O)[C@H](OC)C3)[C@H](C)[C@@H](O)CC1=O)[C@H](C)C[C@@H]2OC [Tacrolimus, tacrolimus, reference compound] was run?
**A.** The value was “significant vacuolation”.

**Q.** And the “plasma glucose levels by day-14” value [3]?
**A.** The value was “induced hyperglycemia is clearly demonstrated”.

**Q.** With O=c1c(O)c(-c2ccccc2)oc2cc(O)cc(OCP(=O)(O)O)c12 [Compound 16, (3,7-Dihydroxy-4-oxo-2-phenyl-4H-chromen-5-yloxy)methylphosphonic acid] as the molecule, how does the activity at 0.1 µM [5] read?
**A.** Its activity at 0.1 µM is 54%.

**Q.** For O=c1c(O)c(-c2ccc(OCP(=O)(O)O)cc2)oc2cc(O)cc(O)c12 [Compound 11, (4-(3,5,7-Trihydroxy-4-oxo-4H-chromen-2-yl)phenoxy)methylphosphonic acid], which activity at 0.1 µM [5] is on record?
**A.** Its activity at 0.1 µM is 49%.

**Q.** What about the “cell associated ^3H-cyclosporin uptake, % of control” value [6] of the same molecule?
**A.** The value was 78 % of control.

**Q.** For O=c1c(O)c(-c2ccc(O)c(OCP(=O)(O)O)c2)oc2ccccc12 [Compound 18, (2-Hydroxy-5-(3-hydroxy-4-oxo-4H-chromen-2-yl)phenoxy)methylphosphonic acid], which activity at 0.1 µM [5] is on record?
**A.** Its activity at 0.1 µM is 66%.

**Q.** What about the “cell associated ^3H-cyclosporin uptake, % of control” value [6] of the same molecule?
**A.** The value was 77 % of control.

**Q.** With O=c1c(O)c(-c2ccccc2)oc2cc(OCP(=O)(O)O)cc(O)c12 [Compound 10, (3,5-Dihydroxy-4-oxo-2-phenyl-4H-chromen-7-yloxy)methylphosphonic acid] as the molecule, how does the activity at 0.1 µM [5] read?
**A.** Its activity at 0.1 µM is 51%.

**Q.** O=c1c(OCP(=O)(O)O)c(-c2ccc(O)c(O)c2)oc2ccccc12 [Compound 20, (2-(3,4-Dihydroxyphenyl)-4-oxo-4H-chromen-3-yloxy)methylphosphonic acid] was tested. Which activity at 0.1 µM [5] did it give?
**A.** The activity at 0.1 µM was 62%.

**Q.** What about the “cell associated ^3H-cyclosporin uptake, % of control” value [6] of the same molecule?
**A.** The value was 77 % of control.

— patent US20100297020A1, “PHOSPHORYLATED AND PHOSPHONATED PYRONE ANALOGS FOR THERAPEUTIC TREATMENT” (Limerick Biopharma, Inc., priority 2008, published 2010)
